Measurements as given in US10392363B2, “Methods for treating protozoan infections” (Neoculi Pty Ltd., priority 2014, dated 2019).

Legend:
[1] = tested on: Giardia duodenalis (WB strain trophozoites); assay: Transmission electron microscopy study; assay type: cell-based; conditions: 6 μg/ml NCL812, 1 hour
Experimental: Samples were incubated at 37° C. for 1 hour (NCL treated) or 4 hours (Metronidazole and DMSO control) then cold shocked to detach trophozoites. Treated samples were centrifuged at 900×g for 10 minutes and washed twice with cold saline. Final cell pellet was resuspended in pre-cooled fixative (1.25% gluteraldehyde, 4% paraformaldehyde in PBS with 4% sucrose, pH 7.2) and left overnight. […] Samples were embedded in epoxy resin and stained with uranyl acetate and lead citrate before viewing on an FEI Tecnai G2 Spirit Transmission Electron Microscope.

[2] = Release from Formulation B (Franz diffusion cells); assay type: physicochemical; conditions: absolute ethanol receptor, 32° C., up to 24 hours
Experimental: Franz diffusion cells were utilized to quantify the release rate of NCL 812 and NCL099 from its topical formulations. Five milliliters of absolute ethanol, which was chosen as the desired release medium, was loaded into the receptor chamber. Temperature of the receptor fluid was kept constant, at 32±1° C. using a water jacket. Acetyl cellulose membranes, with pore size of 0.45 μm (Pall Corporation) was selected and placed between donor and receptor chamber. Followed by that, a number of test samples (Formulation B) was loaded into the donor chamber. One milliliter of receptor fluid was collected at regular time intervals of 0.25, 0.50, 0.75, 1, 2, 3, 4, 5, 6, 7, 8 and 24 hours through the sampling port. One milliliter of fresh absolute ethanol was immediately returned to the receptor chamber. UV-HPLC was utilized to analyse the content of the receptor fluids attained.

[3] = tested on: Leishmania donovani promastigotes; assay: L. donovani screening (Alamarblue); assay type: cell-based
Experimental: L. donovani Screening. Procyclic promastigotes from exponentially growing cultures maintained in DME-L+ Bob additions were used for all assays. Compounds were initially screened for activity at 10 μM. Compounds were diluted in culture media to a […] in 96 well plates. Promastigotes were diluted to a density of ˜8×10^5 cells/ml then added to the assay plate resulting in a final cell density of 4×10^5 cells/ml. in 96 well plates. Cells were incubated for 96 hrs at 27° C. before the addition of Alamarblue (thermofisher). Fluorescence was read at excitation 530 nm and Emission 590 nm. […] Compounds were serially diluted in thirds, in a 96 well plate, in cell growth media so that concentrations ranged from 0.005 to 10 μM and promastigotes added to a final concentration of 1×10^6 cells/ml. Cells were incubated at 27° C. for 72 hours before the addition of alamar blue. Fluorescence was measured as above.

[4] = Cell toxicity assay (WST-1); assay type: cell-based, mouse; conditions: mouse, RAW 264.7, 24 hours, read-out: GI50 macrophage
Experimental: Cell toxicity assays. Mouse macrophages (RAW 264.7) were grown in RPM11640 media supplemented with L-glutamine and 10% foetal calf serum. Cells were trypsanised when 80% confluent and subcultured every 3-4 days. For cytotoxicity assays cells were diluted to a final cell concentration of 2×10^4 cells/ml and 198 μl added to each well of a 96 well plate. Cells were incubated in a humidified incubator for 2 hours at 37° C. 5% CO2 before the addition of NCL compounds (2 μl/well, previously diluted in DMSO). Campothecin, triton X and DMSO only were used as controls. Cells were exposed to the compounds for 24 hours. The metabolic activity of the cells was determined using the WST-1 assay system (Roche Life Science). The supernatant was removed, 100 μl of PBS with 10% WST-1 was added to each well and incubated for 1 hr before reading absorbance at 450 nm. The selectivity index of the compounds was determined by dividing the IC50 of macrophages by the IC50 against parasites. IC50 was determined via graphpad prism software.

[5] = Exposure in male Swiss outbred mice following IV administration; assay type: in vivo
Experimental: The systemic exposures of NCL026, NCL195, NCL259 and NCL812 were studied in nonfasted male Swiss outbred mice weighing 26.2-32.1 g. Mice had access to food and water ad libitum throughout the pre- and post-dose sampling period. Each compound was administered IV via a bolus injection into the tail vein (vehicle 20% (v/v) DMSO in PEG400, 1 mL/kg dose volume, n=8 mice per compound). […] A maximum of two samples were obtained from each mouse, with samples being taken either via submandibular bleed (approximately 120 μL; conscious sampling) or terminal cardiac puncture (0.6 mL; while mice were anaesthetised using inhaled Isoflurane). No urine samples were collected as mice were housed in bedded cages during the study. Blood was collected directly into polypropylene Eppendorf tubes containing heparin as anticoagulant, and stabilisation cocktail (containing Complete® (a protease inhibitor cocktail with EDTA) and potassium fluoride) to minimise the potential for ex vivo degradation of the test compounds in blood/plasma samples. Once collected, blood samples were centrifuged immediately, supernatant plasma was removed, and stored at −80° C. until analysis by LC-MS using methods standard in the art. Each compound was administered in a vehicle composed of 20% (v/v) DMSO in PEG400. Formulations were prepared by dissolving the compounds in DMSO prior to addition of PEG400. Formulations were not filtered prior to dosing and were administered to mice within 2.5 h of preparation. […] The dose administered to each mouse was calculated on the basis of the measured concentration in the IV formulation, the dose volume and individual mouse body weight. Plasma concentration versus time data were analysed using non-compartmental methods (WinNonlin Version 6.3.0.395). Standard calculations for each pharmacokinetic parameter were calculated using standard methods in the art.

In the case of `N=C(N/N=C/c1ccc(Cl)cc1)N/N=C/c1ccc(Cl)cc1` [NCL812, 1,3-bis[(E)-(4-chlorophenyl)methyleneamino]guanidine], the “changes to the ultrastructure of Giardia duodenalis” value [1] is reported as “significant changes”, the “release profile from Formulation B” value [2] is reported as “acceptable release profile” and the “L. donovani SI” value ([3]; GI50 of macrophages divided by IC50 of parasites) is reported as 5.12. For the same compound, the IC50 ([3]; Leishmania donovani, 72 h) was 2.9 ± 0.24 µM, the GI50 at 24 h [4] was 14.8 ± 1.34 µM and the “adverse reactions after IV dosing” value ([5]; IV, 5 mg/kg, one mouse) was “abnormal behaviour (frantic, hyperactive)”. It also gave an AUC0-inf ([5]; male, Swiss outbred, mouse, in vivo, IV 5 mg/kg, values marked a, b are approximations, read-out: AUC0-inf) of 27.9 µM·h, a Vd ([5]; male, Swiss outbred, mouse, in vivo, IV 5 mg/kg, values marked a, b are approximations, read-out: Plasma Vss) of 5.9 L/kg and a clearance ([5]; male, Swiss outbred, mouse, plasma, IV 5 mg/kg, values marked a, b are approximations, read-out: Plasma CL) of 9.5 mL/min/kg. The half-life ([5]; male, Swiss outbred, mouse, IV 5 mg/kg, plasma, value marked b is an approximation, read-out: Apparent t1/2 (converted)) was 8.2 h.
